test system: FAO rat hepatoma cells; assay: Cell based assays (IR phosphorylation assays); conditions: prodrug vs parent carboxylic-phosphonic acid
Description: Antibodies and Chemicals. The antibody against phosphorylated insulin receptor (pIR) and the ELISA kit for detection of pIR were from Biosource (Camarillo, Calif.). Rabbit anti-IR/IGF-1R [pYpY1162/1163] phosphospecific antibody recognizes both the insulin receptor (IR) and the insulin-like growth factor-1 receptor (IGF-1R) phosphorylated at the active site tyrosine residues, 1162 and 1163 (1135 and 1136 for IGF-1R) (pIR/pIGF-1R). The Insulin Receptor [pYpY1162/1163] […] HRP-conjugated secondary antibodies were from Cell Signaling Technology (Beverly, Mass.). The ECL detection system was from Amersham (Buckinghamshire, UK), and human insulin was from Invitrogen (Carlsbad, Calif.).
Tissue Culture. FAO rat hepatoma cells were obtained from ECACC (#89042701) and maintained at 37° C. in a 5% CO2 environment in Dulbecco's modified Eagle's medium with high glucose (DMEM-high glucose) (4500 mg/liter) supplemented with 10% FBS and 50 units/ml penicillin, 100 µg/ml streptomycin and 0.292 mg/ml L-glutamine. For assays, cells were seeded in 24-well plates at a density of 2×10^5 cells/well and maintained until they reached confluency (about 3 days).
IR phosphorylation assays. Cells in 24-well plates were serum starved overnight in DMEM-low glucose (1000 mg/liter) without serum. […] The pIR/pIGF-1R signals were scanned (HP scanjet 3570c) and quantified (Scion Image). […]

| SMILES | increase in activity in a cell-based assay as compared to the parent carboxylic-phosphonic acid [fold] |
| --- | --- |
| CC(C)(C)C(=O)OCOC(=O)c1ccc(-c2csc(NCc3ccc(C(F)(F)P(=O)(O)OCOC(=O)C(C)(C)C)c(Br)c3)n2)cc1 [4-[2-(3-Bromo-4-{[(2,2-dimethyl-propionyloxymethoxy)-hydroxy-phosphoryl]-difluoro-methyl}-benzylamino)-thiazol-4-yl]-benzoic acid 2,2-dimethyl-propionyloxymethyl ester] | ~10 |

test system: not given; assay: not given; conditions: not given

| SMILES | melting point [°C] |
| --- | --- |
| O=C(O)c1cccc(Oc2cccc(-c3nn(Cc4ccc(C(F)(F)P(=O)(O)O)c(F)c4)c(=Nc4ccc(Cl)c(Cl)c4)s3)c2)c1 [Example 10, 3-(3-{5-(3,4-Dichloro-phenylimino)-4-[4-(difluoro-phosphono-methyl)-3-fluoro-benzyl]-4,5-dihydro-[1,3,4]thiadiazol-2-yl}-phenoxy)-benzoic acid] | 153 to 156 |
| COC(=O)c1cccc(Oc2cccc(-c3nn(Cc4ccc(C(F)(F)P(=O)(O)O)c(Cl)c4)c(=Nc4ccc(Cl)c(Cl)c4)s3)c2)c1 [Example 9, 3-{3-[4-[3-Chloro-4-(difluoro-phosphono-methyl)-benzyl]-5-(3,4-dichloro-phenylimino)-4,5-dihydro-[1,3,4]thiadiazol-2-yl]-phenoxy}-benzoic acid methyl ester] | 137 to 139 |
| O=C(O)c1cccc(Oc2cccc(-c3nn(Cc4ccc(C(F)(F)P(=O)(O)O)c(Cl)c4)c(=Nc4ccc(Cl)c(Cl)c4)s3)c2)c1 [Example 8, 3-{3-[4-[3-Chloro-4-(difluoro-phosphono-methyl)-benzyl]-5-(3,4-dichloro-phenylimino)-4,5-dihydro-[1,3,4]thiadiazol-2-yl]-phenoxy}-benzoic acid] | 212 to 215 |

Continued, values first:

| melting point [°C] | SMILES |
| --- | --- |
| 73 to 76 | COC(=O)c1cccc(Oc2cccc(-c3nnc(N(Cc4ccc(C(F)(F)P(=O)(O)O)c(Cl)c4)c4ccc(Cl)c(Cl)c4)s3)c2)c1 [Example 48, 3-(3-{5-[[3-Chloro-4-(difluoro-phosphono-methyl)-benzyl]-(3,4-dichloro-phenyl)-amino]-[1,3,4]thiadiazol-2-yl}-phenoxy)-benzoic acid methyl ester] |
| 178 to 180 | O=C(O)c1cccc(Oc2cccc(-c3nnc(N(Cc4ccc(C(F)(F)P(=O)(O)O)c(Cl)c4)c4ccc(Cl)c(Cl)c4)s3)c2)c1 [Example 46, 3-(3-{5-[[3-Chloro-4-(difluoro-phosphono-methyl)-benzyl]-(3,4-dichloro-phenyl)-amino]-[1,3,4]thiadiazol-2-yl}-phenoxy)-benzoic acid] |
| 137 to 139 | COC(=O)c1cccc(Oc2cccc(-c3nn(Cc4ccc(C(F)(F)P(=O)(O)O)c(F)c4)c(=Nc4ccc(Cl)c(Cl)c4)s3)c2)c1 [Example 11, 3-(3-{5-(3,4-Dichloro-phenylimino)-4-[4-(difluoro-phosphono-methyl)-3-fluoro-benzyl]-4,5-dihydro-[1,3,4]thiadiazol-2-yl}-phenoxy)-benzoic acid methyl ester] |

Reference: patent US7381736B2, “Thiazole and thiadiazole inhibitors of tyrosine phosphatases” (Metabasis Therapeutics, Inc., priority 2004, dated 2008)
